Test results reported in patent US6531476B1, “Piperazine derivatives inhibiting human immunodeficiency virus replication” (Universite Paris 7 - Denis Diderot, priority 1998, dated 2003).
Where two headings read alike, the source gives them in different places.

Key:
[1] = tested on: monocyte-derived macrophages; assay: Cytotoxicity: neutral red viability test on monocyte-derived macrophage cultures; format: cell-based; conditions: 100 μM, FIG. 3
Description: The cytotoxicity of the piperazine derivatives in accordance with the invention was evaluated by measuring, by means of three different tests:
a test with neutral red, the viability of peripheral blood mononuclear cell cultures and of monocyte-derived macrophage cultures treated with the piperazine derivatives in accordance with the invention and by comparing the results obtained with those observed for “control” cultures, i.e. peripheral blood mononuclear cell cultures or monocyte-derived macrophage cultures prepared under the same conditions but in the absence of any treatment with said piperazine derivatives.
The neutral red test is also a test which is used on adherent cells and which was used to measure the effects of the piperazine derivatives in accordance with the invention on the monocyte-derived macrophages. […]
In all cases, the viability of the peripheral blood mononuclear cells and of the monocyte-derived macrophages was measured before culturing them, and then at each renewal of the culture media.

HIV-1/Ba-L [2] = assay: Various procedures for treating monocyte-derived macrophages (before/after infection, maintained or not); format: cell-based; conditions: Human immunodeficiency virus 1, BAL, Macrophage, triplicate, read-out: percentage of inhibition (I) of the viral replication
Description: Various procedures for treating monocyte-derived macrophages with the piperazine derivatives in accordance with the invention were tested using a protocol similar to that described in Example 14.
In these tests, however, the macrophage cultures were divided into three groups:
a first group (group 1 below) in which the macrophages were treated with the piperazine derivatives 24 hours before being infected with HIV (i.e. on D3) and the treatment was maintained up to D28, as described in Example 14,
a second group (group 2 below) in which the macrophages were treated 24 hours after having been infected with HIV (i.e. on D5) and the treatment was maintained up to D28, and
a third group (group 3 below) in which the macrophages were treated 24 hours before being infected with HIV (i.e. on D3), but the treatment was not subsequently maintained.
In all cases, the piperazine derivatives were used at a dose of 100 μM and the tests were carried out in triplicate.

HIV-1/Ba-L [3] = assay: Inhibition of HIV replication in monocyte-derived macrophages (reverse transcriptase activity in culture supernatants); format: cell-based; conditions: dose-effect curve FIG. 1
From the text: a) Production and Culturing of the Macrophages
The macrophages were obtained by differentiation of monocytes which were themselves isolated from peripheral blood mononuclear cells.
To do this, the peripheral blood mononuclear cells were separated from the other elements of the blood by centrifugation on a ficoll gradient (MSL 2000, from Eurobio) and washed twice in RPMI 1640 medium (from Boehringer Mannheim). The monocytes were isolated from these mononuclear cells by counter-current elutriation. The fractions collected were analyzed using a cell counter-analyzer (from Coulter) and the cells corresponding to each fraction were phenotyped and then analyzed using a flow cytometer (FACS, from Becton Dickinson). The purity of the monocytes thus collected is at least equal to 95%.
These monocytes were then suspended in a culture medium (medium A below) comprising RPMI 1640 medium (from Boehringer Mannheim) supplemented with 10% fetal calf serum (from Boehringer Mannheim) decomplemented beforehand by treatment at 56° C. for 30 minutes, L-glutamine (2 mM) and a solution containing 100 μg/ml of 3 antibiotics: penicillin, streptomycin and neomycin (PSN, from Life Technologies), at a rate of 1 million monocytes per ml of culture medium. […]

CCN(CC)C(=O)OCC1CN(C(=S)c2cc(OC)c(OC)c(OC)c2)CCN1C(=O)c1cc(OC)c(OC)c(OC)c1 (stereo not shown)
melting point: 105.8 °C

CCN(CC)C(=O)OCC1CN(C(=O)c2cc(OC)c(OC)c(OC)c2)CCN1C(=O)c1cc(OC)c(OC)c(OC)c1 (stereo not shown) [Example 2, 1,4-bis(3′,4′,5′-trimethoxybenzoyl)-2-(N,N-diethylaminocarbonyloxymethyl)piperazine]
viability of monocyte-derived macrophage cultures versus control cultures (number of live cells) [1]: no significant difference
inhibition at 100 µM (HIV-1/Ba-L [2]; 24 h, Group 2: treated 24 hours after infection (D5), maintained up to D28, average ± standard deviation): 88 ± 12%
inhibition at 100 µM (HIV-1/Ba-L [2]; Group 1: treated 24 hours before infection (D3), maintained up to D28, average ± standard deviation): 91 ± 2%
inhibition at 100 µM (HIV-1/Ba-L [2]; Group 3: treated 24 hours before infection (D3), treatment not maintained, average ± standard deviation): 73 ± 2%
doses at which inhibitory activity on HIV replication is shown (HIV-1/Ba-L [3]): above 1 μM

CCN(CC)C(=O)OCC1CN(C(=O)c2cc(OC)c(OC)c(OC)c2)CCN1Cc1ccccc1.Cl (stereo not shown) [Example 8, 1-benzyl-4-(3′,4′,5′-trimethoxybenzoyl)-2-(N,N-diethylaminocarbonyloxymethyl)piperazine hydrochloride]
melting point: 134 °C
